Source: BindingDB's records for doi:10.1021/jm9803626 (Dupont Pharmaceuticals, 1999)

Biological target: T1, Dimer of Gag-Pol polyprotein [489-587] (Human immunodeficiency virus 1, UniProt P04585)
T1 construct: 489-587
Test: Protease Inhibition Assay
Procedure: Inhibition of HIV protease was measured by assay of the cleavage of a fluorescent peptide substrate. The fluorescent product (2-aminobenzoyl-Ala-Thr-His-Gln-Val-Tyr) was separated from the fluorescent substrate by anion-exchange HPLC on a Mono-Q anion-exchange column (Pharmacia), and fluorescence was monitored at an excitation wavelength of 330 nm and an emission wavelength of 430 nm. Ki values for inhibitor binding were estimated at fixed concentrations of substrate and inhibitor from fractional activity measurements by use of the modified Michaelis-Menten equation.

SMILES	Ki [nM]
N/C(=N\O)c1cccc(CN2C(=O)N[C@H](CCc3ccccc3)[C@@H](O)[C@H]2Cc2ccccc2)c1 [(4R,5R,6R)-Tetrahydro-1-(3-(N-hydroxycarboximidamide)phenylmethyl)-6-phenylmethyl-5-hydroxy-4-(2-phenylethyl)-2(1H)-pyrimidinone]	0.24
O=C1N[C@H](CCc2ccccc2)[C@@H](O)[C@@H](Cc2ccccc2)N1Cc1ccccc1 [(4R,5S,6R)-Tetrahydro-1,6-bis-(phenylmethyl)-5-hydroxy-4-(2-phenylethyl)-2(1H)-pyrimidinone]	66
